Experimental data reported in patent US20120088759A1, “THIAZOLIDIN-4-ONE AND [1,3]-THIAZINAN-4-ONE COMPOUNDS AS OREXIN RECEPTOR ANTAGONISTS” (priority 2009, published 2012).

Key:
[1] = biological target: T1, human orexin-2 receptor (Homo sapiens, UniProt O43614); assay: FLIPR intracellular calcium assay, orexin receptor antagonistic activity (OX2); assay type: cell-based; details: CHO cells expressing human orexin-2 receptor; 3 nM orexin-A; normalized to on-plate reference; *n = geometric mean from n values
T1 construct: expressed in transfected cells; host or cells: CHO (Chinese hamster ovary) cells, kept under G418
T1 sequence (O43614 1-444): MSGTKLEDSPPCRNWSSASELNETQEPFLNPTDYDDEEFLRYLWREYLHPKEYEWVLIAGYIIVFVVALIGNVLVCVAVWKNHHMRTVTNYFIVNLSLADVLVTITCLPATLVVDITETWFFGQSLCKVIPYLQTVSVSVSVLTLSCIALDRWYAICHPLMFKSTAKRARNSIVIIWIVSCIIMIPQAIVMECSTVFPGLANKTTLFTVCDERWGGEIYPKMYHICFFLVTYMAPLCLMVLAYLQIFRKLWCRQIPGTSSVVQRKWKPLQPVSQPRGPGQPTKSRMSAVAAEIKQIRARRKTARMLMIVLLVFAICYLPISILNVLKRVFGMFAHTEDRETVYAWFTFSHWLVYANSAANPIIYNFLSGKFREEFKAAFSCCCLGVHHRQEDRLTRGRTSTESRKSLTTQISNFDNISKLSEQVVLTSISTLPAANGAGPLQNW
Protocol: (§1) The orexin receptor antagonistic activity of the compounds of formula (I) is determined in accordance with the following experimental method.
(§2) Chinese hamster ovary (CHO) cells expressing the human orexin-1 receptor and the human orexin-2 receptor, respectively, are grown in culture medium (Ham F-12 with L-Glutamine) containing 300 μg/ml G418, 100 U/ml penicillin, 100 μg/ml streptomycin and 10% heat inactivated fetal calf serum (FCS). The cells are seeded at 20′000 cells/well into 384-well black clear bottom sterile plates (Greiner). The seeded plates are incubated overnight at 37° C. in 5% CO2.
(§3) Human orexin-A as an agonist is prepared as 1 mM stock solution in MeOH:water (1:1), diluted in HBSS containing 0.1% bovine serum albumin (BSA), NaHCO3: 0.375 g/l and 20 mM HEPES for use in the assay at a final concentration of 3 nM.
(§4) Antagonists are prepared as 10 mM stock solution in DMSO, then diluted in 384-well plates using DMSO followed by a transfer of the dilutions into in HBSS containing 0.1% bovine serum albumin (BSA), NaHCO3: 0.375 g/l and 20 mM HEPES. On the day of the assay, 50 μl of staining buffer (HBSS containing 1% FCS, 20 mM HEPES, NaHCO3: 0.375 g/l, 5 mM probenecid (Sigma) and 3 μM of the fluorescent calcium indicator fluo-4 AM (1 mM stock solution in DMSO, containing 10% pluronic) is added to each well. The 384-well cell-plates are incubated for 50 min at 37° C. in 5% CO2 followed by equilibration at rt for 30-120 min before measurement.
(§5) Within the Fluorescent Imaging Plate Reader (FLIPR Tetra, Molecular Devices), antagonists are added to the plate in a volume of 10 μl/well, incubated for 10 min and finally 10 μl/well of agonist is added. Fluorescence is measured for each well at 1 second intervals, and the height of each fluorescence peak is compared to the height of the fluorescence peak induced by 3 nM orexin-A with vehicle in place of antagonist. For each antagonist, the IC50 value (the concentration of compound needed to inhibit 50% of the agonistic response) is determined and normalized using the obtained IC50 value of a on-plate reference compound. Optimized conditions were achieved by adjustment of pipetting speed and cell splitting regime. The calculated IC50 values of the compounds may fluctuate depending on the daily cellular assay performance. Fluctuations of this kind are known to those skilled in the art.

[2] = biological target: T2, human orexin-1 receptor (Homo sapiens, UniProt O43613); assay: FLIPR intracellular calcium assay, orexin receptor antagonistic activity (OX1); assay type: cell-based; details: CHO cells expressing human orexin-1 receptor; 3 nM orexin-A; normalized to on-plate reference; *n = geometric mean from n values
T2 construct: expressed in transfected cells; host or cells: CHO (Chinese hamster ovary) cells, kept under G418
T2 sequence (O43613 1-425): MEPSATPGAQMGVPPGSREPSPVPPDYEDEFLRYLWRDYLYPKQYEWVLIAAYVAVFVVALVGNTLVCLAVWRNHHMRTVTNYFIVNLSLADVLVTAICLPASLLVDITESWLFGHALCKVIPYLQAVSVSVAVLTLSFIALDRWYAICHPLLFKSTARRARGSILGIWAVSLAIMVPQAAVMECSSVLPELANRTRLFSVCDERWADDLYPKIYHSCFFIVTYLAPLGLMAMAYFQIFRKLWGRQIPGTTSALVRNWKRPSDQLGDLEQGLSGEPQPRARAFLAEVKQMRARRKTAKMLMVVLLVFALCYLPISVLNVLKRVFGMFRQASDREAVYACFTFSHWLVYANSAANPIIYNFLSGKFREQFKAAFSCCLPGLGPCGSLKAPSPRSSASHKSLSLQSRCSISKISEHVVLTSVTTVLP
Protocol: as §1, §2, §3, §4, §5

| SMILES | IC50 [1] | IC50 [2] |
| --- | --- | --- |
| CCOc1ccc(CN2C(=O)CSC2c2c(OC)ccnc2OC)cc1 (centres unmarked) [Example 26, 2-(2,4-Dimethoxy-pyridin-3-yl)-3-(4-ethoxy-benzyl)-thiazolidin-4-one] | 126 nM | 4300 nM |
| COc1cccc(OC)c1C1SCC(=O)N1Cc1ccc(Oc2ncccc2C)cc1 (centres unmarked) [Example 285, 2-(2,6-Dimethoxy-phenyl)-3-[4-(3-methyl-pyridin-2-yloxy)-benzyl]-thiazolidin-4-one] | 135 nM | 1220 nM |
| CCOc1ccc(CN2C(=O)CSC2c2c(OC)cccc2OCC)cc1 (centres unmarked) [Example 15, 3-(4-Ethoxy-benzyl)-2-(2-ethoxy-6-methoxy-phenyl)-thiazolidin-4-one] | 48 nM | 853 nM |
| COc1ccc2cc(CN3C(=O)C(C)SC3c3c(OC)cccc3OC)ccc2c1 (centres unmarked) [Example 31, 2-(2,6-Dimethoxy-phenyl)-3-(6-methoxy-naphthalen-2-ylmethyl)-5-methyl-thiazolidin-4-one] | 30 nM | 11 nM |
| CCOc1ccc(CN2C(=O)CSC2c2c(OC)ccc3c2OCO3)cc1 (centres unmarked) [Example 11, 3-(4-Ethoxy-benzyl)-2-(5-methoxy-benzo[1,3]dioxol-4-yl)-thiazolidin-4-one] | 46 nM | 885 nM |
| COc1ccnc(OC)c1C1SCC(=O)N1Cc1ccc(OC(F)(F)F)cc1 (centres unmarked) [Example 25, 2-(2,4-Dimethoxy-pyridin-3-yl)-3-(4-trifluoromethoxy-benzyl)-thiazolidin-4-one] | 16 nM | 561 nM |
| CCOc1cccc(OC)c1C1SCC(=O)N1Cc1ccc(OC(F)(F)F)cc1 (centres unmarked) [Example 16, 2-(2-Ethoxy-6-methoxy-phenyl)-3-(4-trifluoromethoxy-benzyl)-thiazolidin-4-one] | 24 nM | 454 nM |
| COc1cccc(OC)c1C1N(Cc2ccc(OC(C)C)cc2)C(=O)CS1(=O)=O (centres unmarked) [Example 289, 2-(2,6-Dimethoxy-phenyl)-3-(4-isopropoxy-benzyl)-1,1-dioxo-thiazolidin-4-one] | 16 nM | 181 nM |
| COc1cc(F)cc(OC)c1C1SC(C)C(=O)N1Cc1ccc(OC(F)(F)F)cc1 (centres unmarked) [Example 36, 2-(4-Fluoro-2,6-dimethoxy-phenyl)-5-methyl-3-(4-trifluoromethoxy-benzyl)-thiazolidin-4-one] | 33 nM | 171 nM |
| COc1cccc(OC)c1C1SCC(=O)N1Cc1ccc(OC(F)(F)F)cc1 (centres unmarked) [Example 2, 2-(2,6-Dimethoxy-phenyl)-3-(4-trifluoromethoxy-benzyl)-thiazolidin-4-one] | 15 nM | 144 nM |
| COc1cccc(OC)c1C1SC(C)C(=O)N1Cc1ccc2ccccc2n1 (centres unmarked) [Example 30, 2-(2,6-Dimethoxy-phenyl)-5-methyl-3-quinolin-2-ylmethyl-thiazolidin-4-one] | 442 nM | 356 nM |
| CCOc1ccc(CN2C(=O)CSC2c2c(OC)cncc2OC)cc1 (centres unmarked) [Example 29, 2-(3,5-Dimethoxy-pyridin-4-yl)-3-(4-ethoxy-benzyl)-thiazolidin-4-one] | 36 nM | 1050 nM |
| COc1cncc(OC)c1C1SCC(=O)N1Cc1ccc(OC(F)(F)F)cc1 (centres unmarked) [Example 28, 2-(3,5-Dimethoxy-pyridin-4-yl)-3-(4-trifluoromethoxy-benzyl)-thiazolidin-4-one] | 16 nM | 208 nM |
| COc1cc(F)cc(OC)c1C1SCC(=O)N1Cc1ccc(OC(F)(F)F)cc1 (centres unmarked) [Example 33, 2-(4-Fluoro-2,6-dimethoxy-phenyl)-3-(4-trifluoromethoxy-benzyl)-thiazolidin-4-one] | 8 nM | 105 nM |
| CCOc1ccccc1C1SCCC(=O)N1Cc1ccccc1OC(F)F (centres unmarked) [Example 40, 3-(2-Difluoromethoxy-benzyl)-2-(2-ethoxy-phenyl)-[1,3]thiazinan-4-one] | 68 nM | 1310 nM |
| CCOc1ccccc1C1SCCC(=O)N1Cc1c(OC)cccc1OC (centres unmarked) [Example 43, 3-(2,6-Dimethoxy-benzyl)-2-(2-ethoxy-phenyl)-[1,3]thiazinan-4-one] | 70 nM | 793 nM |
